Measurements reported in patent US12065436B2, “Cardiac sarcomere inhibitors” (Cytokinetics, Inc., priority 2018, dated 2024).
pIC50: −log10 of the molar value.

Target: bovine cardiac myofibrils (full-length cardiac myosin ATPase in the native sarcomere) (Bos taurus (Bovine), UniProt Q9BE39)
Assay: Skinned bovine cardiac myofibril ATPase assay (PK/LDH-coupled)
Type: biochemical
Conditions: Ca2+ activating to 75% of maximal rate; for CDMF75 IC15: concentration giving 15% inhibition; for pIC50: read-out: CDMF75 IC50
Outline: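 Inhibition of steady-state ATPase read at 340 nm through a PK/LDH-coupled NADH system (0.5 mM NADH, 1.5 mM PEP). Detergent-skinned bovine cardiac myofibrils, 1 mg/mL, were tested at pH 6.8 in PIPES/MgCl2 with 50 μM ATP and calcium adjusted to give pCa50 or pCa75 activation.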

Sequence of bovine cardiac myofibrils (full-length cardiac myosin ATPase in the native sarcomere) (Q9BE39 whole entry): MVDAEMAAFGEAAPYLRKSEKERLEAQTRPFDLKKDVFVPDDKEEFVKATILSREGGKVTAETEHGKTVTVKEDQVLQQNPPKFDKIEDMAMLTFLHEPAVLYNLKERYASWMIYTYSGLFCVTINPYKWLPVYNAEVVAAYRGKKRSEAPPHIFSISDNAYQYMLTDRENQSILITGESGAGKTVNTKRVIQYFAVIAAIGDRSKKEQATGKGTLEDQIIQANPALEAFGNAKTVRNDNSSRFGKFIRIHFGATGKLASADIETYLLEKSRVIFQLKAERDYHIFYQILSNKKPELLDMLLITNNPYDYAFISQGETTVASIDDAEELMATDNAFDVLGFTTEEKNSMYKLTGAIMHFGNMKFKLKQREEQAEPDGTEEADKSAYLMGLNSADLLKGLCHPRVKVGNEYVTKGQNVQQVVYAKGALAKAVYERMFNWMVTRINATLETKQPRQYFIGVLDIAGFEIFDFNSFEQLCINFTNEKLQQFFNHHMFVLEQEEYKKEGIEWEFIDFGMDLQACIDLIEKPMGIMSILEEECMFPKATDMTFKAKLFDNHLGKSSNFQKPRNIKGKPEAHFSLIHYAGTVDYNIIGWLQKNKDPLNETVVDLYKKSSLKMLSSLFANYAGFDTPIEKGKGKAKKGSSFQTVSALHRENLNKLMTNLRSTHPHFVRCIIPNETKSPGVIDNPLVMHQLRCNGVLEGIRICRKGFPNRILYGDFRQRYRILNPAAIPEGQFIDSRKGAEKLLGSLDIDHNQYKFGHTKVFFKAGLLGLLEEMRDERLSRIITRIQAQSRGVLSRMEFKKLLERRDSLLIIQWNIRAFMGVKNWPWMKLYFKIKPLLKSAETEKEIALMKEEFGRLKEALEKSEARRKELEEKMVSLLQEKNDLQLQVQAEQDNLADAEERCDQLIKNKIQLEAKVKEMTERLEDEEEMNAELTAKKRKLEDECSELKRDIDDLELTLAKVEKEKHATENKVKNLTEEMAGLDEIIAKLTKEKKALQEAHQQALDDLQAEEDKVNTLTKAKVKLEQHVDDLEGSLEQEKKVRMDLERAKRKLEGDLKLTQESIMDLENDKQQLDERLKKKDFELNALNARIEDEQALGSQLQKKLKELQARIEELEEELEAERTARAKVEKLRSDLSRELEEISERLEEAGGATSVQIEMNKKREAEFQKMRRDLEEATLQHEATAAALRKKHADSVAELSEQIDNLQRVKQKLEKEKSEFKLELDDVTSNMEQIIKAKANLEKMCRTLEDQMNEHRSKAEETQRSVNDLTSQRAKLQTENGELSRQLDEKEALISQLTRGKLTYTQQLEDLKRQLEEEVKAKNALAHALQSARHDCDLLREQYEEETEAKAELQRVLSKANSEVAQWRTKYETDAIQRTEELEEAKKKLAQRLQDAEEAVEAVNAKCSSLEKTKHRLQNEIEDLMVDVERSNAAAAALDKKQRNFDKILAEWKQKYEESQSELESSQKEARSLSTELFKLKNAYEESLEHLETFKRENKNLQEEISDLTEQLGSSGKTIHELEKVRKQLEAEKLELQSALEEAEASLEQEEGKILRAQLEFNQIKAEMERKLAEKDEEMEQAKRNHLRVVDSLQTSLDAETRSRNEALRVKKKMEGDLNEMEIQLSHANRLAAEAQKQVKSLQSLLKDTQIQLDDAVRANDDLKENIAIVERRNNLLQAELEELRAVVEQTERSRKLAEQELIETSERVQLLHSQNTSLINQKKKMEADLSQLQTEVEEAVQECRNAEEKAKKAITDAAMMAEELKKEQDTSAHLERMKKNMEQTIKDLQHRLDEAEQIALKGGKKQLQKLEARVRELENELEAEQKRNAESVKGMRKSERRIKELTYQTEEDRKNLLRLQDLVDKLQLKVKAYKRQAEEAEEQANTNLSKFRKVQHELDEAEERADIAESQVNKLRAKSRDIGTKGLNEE
Sequence of bovine cardiac myofibrils (full-length cardiac myosin ATPase in the native sarcomere) (P85100 whole entry partner): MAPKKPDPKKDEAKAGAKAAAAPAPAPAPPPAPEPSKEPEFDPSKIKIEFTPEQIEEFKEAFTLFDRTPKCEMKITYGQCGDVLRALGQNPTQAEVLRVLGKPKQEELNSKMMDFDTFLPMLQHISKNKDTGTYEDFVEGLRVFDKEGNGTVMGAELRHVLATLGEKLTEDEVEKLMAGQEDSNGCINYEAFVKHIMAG
Sequence of bovine cardiac myofibrils (full-length cardiac myosin ATPase in the native sarcomere) (Q3SZE5 whole entry partner): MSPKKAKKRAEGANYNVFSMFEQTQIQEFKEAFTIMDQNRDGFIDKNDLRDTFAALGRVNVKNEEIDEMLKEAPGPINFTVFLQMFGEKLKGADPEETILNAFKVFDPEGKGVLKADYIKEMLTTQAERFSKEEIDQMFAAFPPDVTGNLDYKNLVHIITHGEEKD

In the case of CC(=O)N[C@@H]1COc2cc(-c3noc(C4CCC4)n3)ccc21 [Compound 458, (S)-N-(6-(5-cyclobutyl-1,2,4-oxadiazol-3-yl)-2,3-dihydrobenzofuran-3-yl)acetamide], the “CDMF75 IC15” value was 2000 nM and the pIC50 was 5.04.

With Cn1nccc1C(=O)N[C@@H]1CCc2cc(-c3noc(C4(C)CC4)n3)ccc21 [Compound 459, (R)-1-methyl-N-(5-(5-(1-methylcyclopropyl)-1,2,4-oxadiazol-3-yl)-2,3-dihydro-1H-inden-1-yl)-1H-pyrazole-5-carboxamide] the “CDMF75 IC15” value was 400 nM and the pIC50 was 5.92.

Cn1nccc1C(=O)N[C@@H]1CCc2cc(-c3noc(C4CC4(C)C)n3)ccc21 (stereo partly drawn) [Compound 460, N-((1R)-5-(5-(2,2-dimethylcyclopropyl)-1,2,4-oxadiazol-3-yl)-2,3-dihydro-1H-inden-1-yl)-1-methyl-1H-pyrazole-5-carboxamide] was tested, and the “CDMF75 IC15” value was 1300 nM and the pIC50 was 5.26.

In the case of CC(=O)N[C@@H]1COc2cc(-c3noc(C4(C)CC4)n3)ccc21 [Compound 461, (S)-N-(6-(5-(1-methylcyclopropyl)-1,2,4-oxadiazol-3-yl)-2,3-dihydrobenzofuran-3-yl)acetamide], the “CDMF75 IC15” value was 1300 nM and the pIC50 was 5.19.

For Cc1ncoc1C(=O)N[C@@H]1COc2cc(-c3noc(C4(C)CC4)n3)ccc21 [Compound 462, (S)-4-methyl-N-(6-(5-(1-methylcyclopropyl)-1,2,4-oxadiazol-3-yl)-2,3-dihydrobenzofuran-3-yl)oxazole-5-carboxamide], the “CDMF75 IC15” value was 400 nM and the pIC50 was 5.85.

Cc1ncc(C(=O)N[C@@H]2COc3cc(-c4noc(C5CC5)n4)ccc32)o1 [Compound 463, (S)-N-(6-(5-cyclopropyl-1,2,4-oxadiazol-3-yl)-2,3-dihydrobenzofuran-3-yl)-2-methyloxazole-5-carboxamide] was tested, and the “CDMF75 IC15” value was 700 nM and the pIC50 was 5.62.

CCc1nc(-c2ccc3c(c2)OC[C@H]3NC(=O)c2cnc(C)o2)no1 [Compound 464, (S)-N-(6-(5-ethyl-1,2,4-oxadiazol-3-yl)-2,3-dihydrobenzofuran-3-yl)-2-methyloxazole-5-carboxamide] was tested, and the “CDMF75 IC15” value was 400 nM and the pIC50 was 5.85.

In the case of Cc1ncc(C(=O)N[C@@H]2CCc3cc(-c4noc(C5(C)CC5)n4)ccc32)o1 [Compound 465, (R)-2-methyl-N-(5-(5-(1-methylcyclopropyl)-1,2,4-oxadiazol-3-yl)-2,3-dihydro-1H-inden-1-yl)oxazole-5-carboxamide], the “CDMF75 IC15” value was 700 nM and the pIC50 was 5.59.

For Cc1ncc(C(=O)N[C@@H]2COc3cc(-c4noc(C5(C)CC5)n4)ccc32)o1 [Compound 466, (S)-2-methyl-N-(6-(5-(1-methylcyclopropyl)-1,2,4-oxadiazol-3-yl)-2,3-dihydrobenzofuran-3-yl)oxazole-5-carboxamide], the “CDMF75 IC15” value was 800 nM and the pIC50 was 5.54.

In the case of CCc1nc(-c2ccc3c(c2)CC[C@H]3NC(=O)c2coc(COC)n2)no1 [Compound 467, (R)-N-(5-(5-ethyl-1,2,4-oxadiazol-3-yl)-2,3-dihydro-1H-inden-1-yl)-2-(methoxymethyl)oxazole-4-carboxamide], the “CDMF75 IC15” value was 2100 nM and the pIC50 was 5.08.

In the case of CCc1nc(-c2ccc3c(c2)CC[C@H]3NC(=O)c2coc(CS(C)(=O)=O)n2)no1 [Compound 468, (R)-N-(5-(5-ethyl-1,2,4-oxadiazol-3-yl)-2,3-dihydro-1H-inden-1-yl)-2-((methylsulfonyl)methyl)oxazole-4-carboxamide], the “CDMF75 IC15” value was 6600 nM and the pIC50 was 4.41.

With CCc1nc(-c2ccc3c(c2)CC[C@H]3NC(=O)c2cn[nH]c2)no1 [Compound 469, (R)-N-(5-(5-ethyl-1,2,4-oxadiazol-3-yl)-2,3-dihydro-1H-inden-1-yl)-1H-pyrazole-4-carboxamide] the “CDMF75 IC15” value was 300 nM and the pIC50 was 5.96.

With CCc1nc(-c2ccc3c(c2)CC[C@H]3NC(=O)c2cnn(C3COC3)c2)no1 [Compound 470, (R)-N-(5-(5-ethyl-1,2,4-oxadiazol-3-yl)-2,3-dihydro-1H-inden-1-yl)-1-(oxetan-3-yl)-1H-pyrazole-4-carboxamide] the “CDMF75 IC15” value was 4400 nM and the pIC50 was 4.77.
